For one molecule, MIC results are on record in patent US9045466B2, “Amidine compound or salt thereof” (priority 2011, dated 2015).

Holding throughout (assay): Fungal susceptibility test, broth microdilution method (MIC)
What all share (assay type): cell-based
On the technique in general: Dilution methods test growth across graded concentrations, often in twofold steps.

Assay [1] has as its system Aspergillus fumigatus TIMM 0063. The note with it: TIMM0063, 48 h, pH 7, read-out: MIC (μg/mL) A. fumigatus TIMM 0063. How it is done:
(§1) The fungal susceptibility tests on test substances were conducted by the broth microdilution method equivalent to Clinical and Laboratory Standards Institute method. The medium used in the susceptibility tests was RPMI1640 adjusted to pH 7.0 with 0.165 mol/L morpholinepropanesulfonic acid (MOPS) and 50% sodium hydroxide (RPMI/MOPS). Each test substance was dissolved in DMSO and serially diluted in 2-fold increments with DMSO on a 96-well microplate. Then, the dilutions were dispensed by 1 μL to a 96-well microplate. Candida albicans TIMM 1623 cultured overnight at 35° C. in Sabouraud's agar medium was suspended in sterile saline. The number of cells was counted under a biological microscope, and the fungal suspension was diluted with RPMI/MOPS to prepare the inoculum solution (approximately 1×10^3 cells/mL). Alternatively, Candida albicans TIMM 1623 stored at −80° C. was diluted with RPMI/MOPS to prepare the inoculum solution (approximately 1×10^3 CFU/mL). Aspergillus fumigatus TIMM 0063 stored at 5° C. was diluted with RPMI/MOPS to prepare the inoculum solution (approximately 1×10^4 CFU/mL). Trichophyton rubrum NBRC 5467 stored at 5° C. or −80° C. was diluted with RPMI/MOPS to prepare the inoculum solution (approximately 2×10^3 CFU/mL). The 199 μL of inoculum solution was dispensed to each well to prepare the microplate containing the designated concentrations of test substance, medium and fungal cells. Candida albicans and Aspergillus fumigatus were cultured at 35° C. for 2 days. Trichophyton rubrum was cultured at 35° C. for 4 days. After the completion of culture, MIC was determined by visual observation. The MICs of Candida albicans and Aspergillus fumigatus were set to the lowest concentration at which approximately 50% growth inhibition was seen, when compared with a growth control without the addition of the test substance. The MIC of Trichophyton rubrum was set to the lowest concentration at which approximately 80% growth inhibition was seen, when compared with a growth control without the addition of the test substance.

Assay [2] relates to Candida albicans TIMM 1623. The note with it: TIMM1623, 48 h, pH 7, read-out: MIC (μg/mL) C. albicans TIMM1623. As for the experimental part: as §1
Assay [3] has as its system Trichophyton rubrum NBRC 5467. The note with it: NBRC5467, 96 h, pH 7, read-out: MIC (μg/mL) T. rubrum NBRC5467. As for the experimental part: as §1

Where a name gives a salt, the structure may show the parent alone.

Take `CCN(C)/C=N/c1cc(C)c(Cc2nc(-c3ccc(C)cc3F)cs2)cc1C` [Example 59, N-Ethyl-N′-(4-{[4-(2-fluoro-4-methylphenyl)-1,3-thiazol-2-yl]methyl}-2,5-dimethylphenyl)-N-methylimidoformamide dihydrochloride]: the MIC in assay [1] came out at 0.0313 µg/mL; in assay [2] it was 0.0156 µg/mL; in assay [3], 0.0005 µg/mL.
